Assay results reported in PMC7696666, “Epithelial Transfer of the Tyrosine Kinase Inhibitors Erlotinib, Gefitinib, Afatinib, Crizotinib, Sorafenib, Sunitinib, and Dasatinib: Implications for Clinical Resistance” (Cancers, 2020).
Values joined by “and” are separate entries in the source; they are usually repeats but may differ in a detail not shown here. Identical values can stand only once. Like-named read-outs stand apart in the source and are kept apart here.

What was measured:
[1] = CaCo2 Transwell transport (Papp, efflux ratio); type: in vitro ADME, human; details: human; for efflux ratio at 180 min, 10 µM / efflux ratio at 180 min, 20 µM: read-out: Efflux Ratio (Papp B–A / Papp A–B); for Papp A→B at 180 min, 10 µM / Papp A→B at 180 min, 20 µM: read-out: Papp (Apical Basolateral); for Papp B→A at 180 min, 10 µM / Papp B→A at 180 min, 20 µM: read-out: Papp (Basolateral Apical); for efflux ratio at 180 min, 20 µM: Caco-2, 20 µM
Method: (§1) The Transwell system was developed using the wild type Caco-2 cell line (passage 15–25) cultured in Dulbecco’s […] medium (DMEM) at standard conditions of 37 °C, 5% CO2, and 100% humidity as previously reported. […] To ensure a controlled growth environment the plate was covered with Breathe-Easier cell culture foil during the incubation period. The integrity of the developed monolayer was assessed by TEER before administration of compound solutions and after the final sampling stage.
(§2) The initial concentration of the drug was verified from a 20 µL sample taken immediately from the donor compartment after drug administration (t = 0).
(§3) The permeability coefficient (Papp) represents a measure for the efficiency of transport and was calculated with the following equation: Papp=ΔQ/Δt×V/C0⋅A where ∆Q/∆t = the rate of increase in drug concentration (accumulative mass transport) in the receiver compartment over time (µM/s), V = volume in the receiver compartment (mL), C0 = the initial concentration of drug in the donor compartment (µM), and A = the membrane surface area (cm^2).
(§4) To take into account the slightly nonlinear transfer characteristics of each compound, the rate of increase in drug concentration was determined for each time period and the Papp was then calculated. The average Papp was then determined with units of cm/s × 10^−6 or µm/s.
(§5) The efflux ratio was calculated according to the equation: Efflux ratio=PappB→A/PappA→B.
(§6) Statistical significance was determined using a simple Student’s t-test where a p value of <0.05 was considered significant.

CaCo2 monolayer [2] = experiment: CaCo2 Transwell transport (Papp, efflux ratio); type: in vitro ADME, human; details: for Papp basolateral to apical: B–A
Method: as §1, §2, §3, §4, §5, §6

CaCo2 cells = experiment: Intracellular accumulation in CaCo2 Transwell cells at the end of the transport period; type: in vitro ADME, human; details: A->B incubation
Method: (§7) In order to get insight in the barrier role of the CaCo2 model system, we determined the intracellular accumulation of the TKISs at the end of the transport period, in normal monolayers of CaCo2 cells and in several other colon cancer cell lines. At the end of the transport period (both from the B->A and A->B incubations), cells were harvested and intracellular accumulation was determined.
These cells were exposed to 20 μM of a TKI and were harvested after 2 h for determination of TKI concentration with LC-MS-MS. Values are means ± SEM for the number of experiments described in Figure 3, Figure 4, and Figure 5 and from three separate experiments for the monolayer CaCo2 and WiDr cells. […] A->B, mass transport from A to B; B->A, mass transport from B to A. For AFA, CRI, and DAS, no data in WiDr cells were available. […] The bar heights were not read.
In a different set of experiments, the CaCo2 cells were cultured in 6-wells plates as monolayers until semiconfluency. Two other colon cancer cell lines, WiDr and HT29, were cultured similarly. These cells were exposed for 2 h to various TKIs at concentrations varying from 50 nM to 20 µM). […] At the end of the incubation, cells were harvested, as described earlier, and extracted for drug analysis using LC-MS-MS as described above.

[3] = set-up: method as in PMID 30544701; details: method not given, ref [45], cited from earlier work
[4] = Disposition in blood compartments (whole blood, plasma, serum) of patients; type: in vivo, human; details: for blood plasma ratio: human, whole blood and plasma, oral
Method: Each individual sample was divided into two components; a 1 mL of tube of whole blood and 0.5 of plasma, each sample was stored at −20 °C until analysis could be performed. An additional serum sample was also obtained for patients treated with erlotinib. Blood samples for afatinib were obtained from NSCLC patients after 4 days receiving the standard daily dose of 40 mg.
Blood samples were taken at 1, 2, and 30 days after the start of treatment. Samples were separated from the whole blood into plasma, serum, and a packed red blood cell pellet (using the MESED apparatus). In a dose escalation study in order to determine whether a high pulsatile dose of sorafenib could be given to patients, we analyzed red blood cells and whole blood in 12 patients treated with sorafenib at total doses ranging from 2000 to 2800 mg daily. From these patients, samples were collected in 3 cycles.
For sunitinib, initially pharmacokinetic samples were collected over the first 24 h period from a single patient, with a renal cell carcinoma receiving a nonstandard treatment schedule (700 mg biweekly), in comparison to the standard 50 mg daily dose. Whole blood samples were divided into plasma, serum, and a packed red blood cell pellet. This cohort could later be extended with 6 patients treated with 800 mg sunitinib every 2 weeks enrolled in a clinical study to determine the tolerability of pulsatile sunitinib.
Five blood samples were taken over a 5-month period and divided into whole blood, an extracted 100 µL of red blood cells, and a plasma sample.

CaCo2 monolayer [5] = details: cited from earlier work
HT29 cells = experiment: Intracellular accumulation in HT29 colon cancer cells; type: in vitro ADME; details: after 24 h
Method: as §7
In a different set of experiments, the CaCo2 cells were cultured in 6-wells plates as monolayers until semiconfluency. Two other colon cancer cell lines, WiDr and HT29, were cultured similarly. […]

[6] = Caco-2, with erlotinib (co-incubated, concentration not stated), 10 µM, with erlotinib

SMILES | efflux ratio at 180 min, 10 µM ([1]; Caco-2, 10 µM) | Papp A→B at 180 min, 10 µM ([1]; Caco-2, 10 µM) | Papp B→A at 180 min, 10 µM ([1]; Caco-2, 10 µM) | Efflux Ratio (Papp B–A / Papp A–B) (CaCo2 monolayer [2]; 10 µM) | Papp apical to basolateral (CaCo2 monolayer [2]; 10 µM, A–B) | Total amount transferred apical to basolateral in 3 h (CaCo2 monolayer [2]; 10 µM, A–B) | Papp basolateral to apical (CaCo2 monolayer [2]; 10 µM) | Intracellular accumulation at the end of the transfer period (A->B) (CaCo2 cells) | Log P [3] | Log D (pH 5.5) [3] | Log D (pH 7.5) [3] | efflux ratio at 180 min, 20 µM [1] | Papp A→B at 180 min, 20 µM ([1]; Caco-2) | Papp B→A at 180 min, 20 µM ([1]; Caco-2) | Total amount transferred apical to basolateral in 3 h (CaCo2 monolayer [2]; 20 µM, A–B) | Intracellular accumulation in HT29 cells (HT29 cells) | other results
CN(C)C/C=C/C(=O)Nc1cc2c(Nc3ccc(F)c(Cl)c3)ncnc2cc1O[C@H]1CCOC1 [Afatinib, afatinib] | > 5 | 1.5 ± 2.2 ×10⁻⁶ cm/s | 10.9 ± 5 ×10⁻⁶ cm/s | 7.3 | 1.48 ×10⁻⁶ cm/s | 90 pmol | 10.9 ×10⁻⁶ cm/s | 0.45 pmol/μg protein | 3.59 | 1.00 | 2.87 |  |  |  |  |  | Papp apical to basolateral (CaCo2 monolayer [2]; 10 µM, A–B, listed as afatinib): 1.5 ×10⁻⁶ cm/s; Efflux Ratio (Papp B–A / Papp A–B) (CaCo2 monolayer [2]; 10 µM, listed as afatinib): 7.34 and > 6
C[C@@H](Oc1cc(-c2cnn(C3CCNCC3)c2)cnc1N)c1c(Cl)ccc(F)c1Cl [Crizotinib, crizotinib] | > 5 |  | 7.7 ± 5.5 ×10⁻⁶ cm/s |  |  | nothing could be detected |  | 2.11 pmol/μg protein | 4.73 | 0.30 | 1.80 |  |  |  |  |  | Papp (Apical Basolateral) (CaCo2 monolayer [2]; 10 µM, A–B): Unmeasurable; Effect of exposure on CaCo2 cells and membrane (CaCo2 monolayer [2]; 20 µM exposure): caused cell death and disruption of the membrane; A–B mass transport at 20 µM, fold lower than B–A mass transport at 10 µM (CaCo2 monolayer [2]; A–B 20 µM vs B–A 10 µM): 20 fold; Whole blood concentration higher than plasma ([4]; standard dose (250 mg twice daily), single patient): 30%
COc1cc2ncnc(Nc3ccc(F)c(Cl)c3)c2cc1OCCCN1CCOCC1 [Gefitinib, gefitinib] | 0.33 | 0.57 ± 0.43 ×10⁻⁶ cm/s | 0.19 ± 0.12 ×10⁻⁶ cm/s | 0.3 | 0.57 ×10⁻⁶ cm/s |  | 0.19 µm/s | 0.79 pmol/μg protein | 4.11 | 1.96 | 3.55 |  |  |  |  |  | Papp (Apical Basolateral) (CaCo2 monolayer [5]; 20 µM, A–B, previously reported, ref [39]): 0.38 ± 0.05 ×10^−6 cm/s; Papp (Basolateral Apical) (CaCo2 monolayer [5]; 20 µM, B–A, previously reported, ref [39]): 0.39 ± 0.038 ×10^−6 cm/s; Efflux Ratio (Papp B–A / Papp A–B) (CaCo2 monolayer [5]; 20 µM, previously reported, ref [39]): 1.0; Efflux ratio after treatment with NaN3 (CaCo2 monolayer [5]; after NaN3, ref [38],[39]): 0.46
CNC(=O)c1cc(Oc2ccc(NC(=O)Nc3ccc(Cl)c(C(F)(F)F)c3)cc2)ccn1 [Sorafenib, sorafenib] | 0.92 | 10.1 ± 9.5 ×10⁻⁶ cm/s | 9.3 ± 5.8 ×10⁻⁶ cm/s |  |  |  |  | 1.65 pmol/μg protein | 5.16 | 4.26 | 4.26 | 0.86 | 14.1 ± 11.5 ×10⁻⁶ cm/s | 11.4 ± 5.6 ×10⁻⁶ cm/s | approximately 950 pmol | 6 pmol/μg protein | efflux ratio at 180 min, 10 µM [1, 6]: 0.71; Papp A→B at 180 min, 10 µM [1, 6]: 18.6 ± 13.2 ×10⁻⁶ cm/s; Papp B→A at 180 min, 10 µM [1, 6]: 13.3 ± 10.5 ×10⁻⁶ cm/s; Efflux Ratio (Papp B–A / Papp A–B) (CaCo2 monolayer [2]; 20 µM): 0.81; Efflux Ratio (Papp B–A / Papp A–B) (CaCo2 monolayer [2]; 20 µM, listed as sorafenib): 0.8; blood plasma ratio ([4]; 2000–2800 mg cumulative daily dose, 12 patients, mean ± SD, read-out: Whole blood/plasma ratio): 1.2 ± 0.4; blood plasma ratio ([4]; clinical samples, read-out: Blood to plasma ratio): > 3; Fold increase of concentration in whole blood compared to plasma ([4]; low dose (400 mg twice daily), several patients): 2–4 fold
CCN(CC)CCNC(=O)c1c(C)[nH]c(/C=C2\C(=O)Nc3ccc(F)cc32)c1C [Sunitinib, sunitinib] |  |  |  |  |  |  |  | 11.9 pmol/μg protein | 3.15 | −0.09 | 1.09 | 1.6 | 7.7 ± 4.6 ×10⁻⁶ cm/s | 12.6 ± 12.3 ×10⁻⁶ cm/s | 581.2 pmol | 32.2 pmol/μg protein | blood plasma ratio ([4]; 50 mg, standard treatment at 50 mg, read-out: Whole blood/plasma ratio): 0.7; blood plasma ratio ([4]; single dose 14-fold higher than standard, 7 patients, mean ± SD, read-out: Whole blood/plasma ratio): 2.6 ± 0.7; Whole blood concentration lower than plasma ([4]; standard dosing regimen): 40–50%
